# Read-outs that look alike come from different tables or passages of the source.
# How the values were obtained:
# [1] = test system: ACE-2; format: in vivo, rat
# Protocol: Groups 1 and 2 were not subjected to an exercise routine. Groups 3-8 were subjected to an exercise regimen consisting of a week training period with an incremental exercise capacity described below. After the week training period the exercise regimen followed was each rat in Groups 3-8 were subjected to 6 weeks of running at 25 m/min during 45 min every day. […] These correspond to 0, 250, 500, 1000, 2000 and 4000 mg per day for humans, respectively.
# After the 6-week exercise regimen was completed, muscle, lung, plasma and liver tissue samples were taken from these rats. The ACE-2 analysis of the tissue samples are subjected to the following test.
# To determine the protein accumulation in the liver, muscle and lung samples, a Western Blotting test was used. Each of the tissue samples of the same group were pooled, homogenized, and sonicated in lysis buffer supplemented with 1X protease and phosphatase inhibitor cocktail (#5872, Cell Signaling). Total protein content was detected with Qubit 2.0 Fluorometer according to the manufacturer’s protocol (Invitrogen, Life Technologies Corporation, Carlsbad, CA, USA). Equal amounts of protein (20 µg) were size-fractionated using any-kD Mini-Protean TGX gel electrophoresis and then transferred to a nitrocellulose membrane using the Trans-Blot Turbo Transfer System (Bio-Rad, Life Sciences Research). Thereafter, membranes were blocked in 5% nonfat milk in Tris-buffered saline (TBS) containing 0.1% Tween (TBS-T; blocking solution) for 1 h at room temperature, washed in TBS-T, and incubated overnight with ACE-2 (Abcam, Cambridge, UK). The following day, membranes were washed with TBS-T and then incubated with horseradish peroxidase-conjugated goat anti-rabbit (Abcam, Cambridge, UK) or goat anti-mouse (Abcam, Cambridge, UK) secondary antibody (diluted 1:1000) for 1 h. Individual blots were performed at least three times. Protein loading was controlled by stripping and re-probing the nitrocellulose membrane with an anti-β-actin antibody (Abcam, Cambridge, UK). Protein levels were analyzed densitometrically using an image analysis system (Image J; National Institute of Health, Bethesda, MD, USA), corrected with values determined on β-actin blots and expressed as relative values compared with the control group.
# To determine the mRNA expression levels of ACE-2 in the liver, lung and muscle samples a total RNA extraction and specific mRNA quantification was conducted by reverse transcription-polymerase chain reaction (RT-qPCR). Gene expressions were done by quantitative polymerase chain reaction (qPCR). […]
# [2] = test system: Furin; test: Furin protein and mRNA in rat tissue samples; format: in vivo; conditions: exercised rats
# From the text: After a week of the adaptation period, the rats were divided into eight equal groups containing seven rats each. The initial body weights of the rats were similar in all the groups (214.53 grams ± 4.67; P > 0.05).
# Groups 1 and 2 were not subjected to an exercise routine. Groups 3-8 were subjected to an exercise regimen consisting of a week training period with an incremental exercise capacity described below. After the week training period the exercise regimen followed was each rat in Groups 3-8 were subjected to 6 weeks of running at 25 m/min during 45 min […]. […] These correspond to 0, 250, 500, 1000, 2000 and 4000 mg per day for humans, respectively.
# To determine the protein accumulation in the liver, muscle and lung samples, a Western Blotting test was used. Each of the tissue samples of the same group were pooled, homogenized, and sonicated in lysis buffer supplemented with 1X protease and phosphatase inhibitor cocktail (#5872, Cell Signaling). Total protein content was detected with Qubit 2.0 Fluorometer according to the manufacturer’s protocol (Invitrogen, Life Technologies Corporation, Carlsbad, CA, USA). […] Protein levels were analyzed densitometrically using an image analysis system (Image J; National Institute of Health, Bethesda, MD, USA), corrected with values determined on β-actin blots and expressed as relative values compared with the control group. […]
# [3] = test system: TNF-alpha; test: Human study, serum ELISA, TNF-alpha; format: in vivo
# Protocol: (§1) A human study was run with a total of 80 healthy male and female subjects ranging from 21 to 65 years of age, who were active (i.e. 30 minutes per day of moderate activity, 3 days per week) are randomized into two groups. […] Seventy-three subjects completed the trial and biomarker data were analyzed from the sera of the 73 completers. Sera were collected for analysis of C-Reactive Protein (CRP), ACE 1, ACE 2, TMPRSS 2, the Tumor Necrosis Factor alpha (TNF-alpha), and Furin at baseline in the beginning of the trial, at week 5 and 48 hr after an exercise challenge as described (Clinicaltrials.gov NCT04420377). The exercise challenge serves as surrogate to the inflammation stimulus.
# (§2) To obtain human sera, venous blood was extracted by venipuncture of the antecubital vein using a 21-gauge syringe and collected into a 10 mL EDTA vacutainer tube (BD Vacutainer®, Becton, Dickinson and Company, Franklin Lakes, NJ) by a certified phlebotomist. […] Human ACE-1, ACE-2, TMPRSS2, Furin, CRP and TNF-alpha protein levels were assessed using commercially available ELISA kits, according the manufacturer recommendations, ACE-1 (R&D systems Inc., Minneapolis, MN, USA), ACE-2 (RayBiotech inc., Peachtree Corners, GA), TMPRSS2 (Novus Biologicals, Littleton, CO), CRP (R&D Systems Inc., Minneapolis, MN), TNF-alpha (Novus Biologicals, Littleton, CO), and Furin (Sigma Aldrich, St. Louis, MO). […]
# [4] = test system: ACE-2; test: ACE-2 mRNA expression in Calu-3, RT real-time PCR; format: cell-based, human; conditions: Calu-3, 50 to 1,000 uM, 24 hr pre-treatment
# Protocol: To quantify the human gene expression, Calu-3 seeded in a 12-well plate (220,000 cells) were stimulated with 100 uM, 500 uM and 1000 uM Carnitine alone for 24 h. RNA was extracted using TRIzol (Qiagen) as per standard protocol and total RNA was reverse transcribed using SuperScript II RT (Invitrogen). Expression levels of ACE-2 and TMPRSS2 were evaluated by SYBR real-time PCR using gene-specific primers as previously reported (Ma et al., Eye 2020;34:1212). GAPDH was used as an internal normalizer. […] Fold change in expression relative to that in untreated cells was determined using the standard ddCt method.
# [5] = test system: Furin; test: Human study, serum ELISA, Furin; format: in vivo; conditions: 2 g daily, 5 weeks, 48 hours after exercise challenge, versus placebo
# Protocol: as §1, §2
smiles,measurement,setting,value
C[N+](C)(C)C[C@H](O)CC(=O)[O-] [L-carnitine],"dose of maximum effect on ACE-2, TMPRSS2 and Furin levels","[1]; exercised rats, oral, 6 weeks",200 mg/kg
same,ACE-2 mRNA levels,"[1]; exercised rats, tissues, versus exercise control",dose-dependent decrease
same,ACE-2 protein level,"[1]; exercised rats, western blotting",return to the baseline control
same,ACE-2 levels,"[1]; rats without exercise (inflammation), 200 mg/kg",does not affect these receptors
same,Furin mRNA levels,"[2]; tissues, versus exercise control",dose-dependent decrease
same,Furin protein level,[2]; western blotting,return to the baseline control
same,TNF-alpha levels,"[3]; human serum, any time point, b137",No change occurred
same,TNF-α,"[3]; human, group A, Wk5 compared to BL, p<0.01",lower
same,ACE-2 mRNA levels,[4],statistically significant downregulation
same,Furin serum levels,[5],significant decrease

# — US20230346735A1, “Nutritional Composition Comprising Carnitine and Method for Treating or Preventing an Infection in a Mammal” (priority 2020, published 2023)
